Here are results for 7 molecules from ChEMBL document CHEMBL1135011, “Isolation and antimalarial activity of peroxydisulfate oxidation products of primaquine” (Bioorg Med Chem Lett, 2002).

The test system of test [1] is Plasmodium falciparum. Description: (§1) Effective concentration for schizonticidal activity against Plasmodium falciparum FDL-HD. It is filed as functional.
Test [2] is filed under the species Mus musculus. Description: Activity by comparing the number of oocytes on midgets of mosquitoes fed on drug treated on 1 mice with those of insects fed on untreated animals at 6 hr of mosquito feeding; 0/20. It is filed as functional.
The species named for test [3] is Mus musculus. The test can be described thus: Activity by comparing the number of oocytes on midgets of mosquitoes fed on drug treated on mice (3) with those of insects fed on untreated animals at 6 hr of mosquito feeding; 0/10. It is filed as functional.
The subject of test [4] is Plasmodium falciparum. Description: (§2) Effective concentration for gametocidal activity against Plasmodium falciparum FDL-HD. In kind it is functional, organism-based.
Test [5] has as its system Plasmodium falciparum. The description is as §2. In kind it is functional.
Test [6] is filed under the species Mus musculus. The test can be described thus: Activity by comparing the number of oocytes on midgets of mosquitoes fed on drug treated on mice (3) with those of insects fed on untreated animals at -1h of mosquito feeding; 8/11. It is filed as functional.
Test [7] is filed under the species Mus musculus. The test can be described thus: Activity by comparing the number of oocytes on midgets of mosquitoes fed on drug treated on mice (2) with those of insects fed on untreated animals at 24 hr of mosquito feeding; 0/20. It is filed as functional.
Test [8] deals with Mus musculus. The test can be described thus: Tested for in vivo gametocytocidal activity against Plasmodium yoelii infected mice, on intraperitoneal dose of 10 mg/kg at -1h of mosquito feeding; Activity = No of Oocytes for infectivity. It is filed as functional.
The subject of test [9] is Mus musculus. Description: Gametocytocidal activity against Plasmodium yoelii infected mice (2) on intraperitoneal dose of 10 mg/kg at -1h of mosquito feeding was determined and average of oocysts determined to find infectivity. In kind it is functional.
Test [10] has as its system Plasmodium falciparum. The test is described as §1. It is filed as functional, organism-based.
The species named for test [11] is Mus musculus. Description: Activity by comparing the number of oocytes on midgets of mosquitoes fed on drug treated on mice (2) with those of insects fed on untreated animals at -1h of mosquito feeding; 16/20. It is filed as functional.
The subject of test [12] is Mus musculus. The test can be described thus: Gametocytocidal activity against Plasmodium yoelii infected mice (3) on intraperitoneal dose of 10 mg/kg at -1h of mosquito feeding was determined and average of oocysts determined to find infectivity. It is filed as functional.
For test [13], the species on record is Mus musculus. Description: Activity by comparing the number of oocytes on midgets of mosquitoes fed on drug treated on 1 mice with those of insects fed on untreated animals at 24 hr of mosquito feeding; 0/20. It is filed as functional.
For test [14], the species on record is Mus musculus. The test can be described thus: Activity by comparing the number of oocytes on midgets of mosquitoes fed on drug treated on mice (2) with those of insects fed on untreated animals at 6 hr of mosquito feeding; 0/20. It is filed as functional.
Test [15] is filed under the species Mus musculus. Description: Activity by comparing the number of oocytes on midgets of mosquitoes fed on drug treated on 1 mice with those of insects fed on untreated animals at -1h of mosquito feeding; 15/15. In kind it is functional.
The species entered for test [16] is Mus musculus. The test can be described thus: Activity by comparing the number of oocytes on midgets of mosquitoes fed on drug treated on mice (2) with those of insects fed on untreated animals at -1h of mosquito feeding; 13/15. In kind it is functional.
Test [17] has as its system Mus musculus. The test can be described thus: Gametocytocidal activity against Plasmodium yoelii infected mice (2) on intraperitoneal dose of 10 mg/kg at 24 hr of mosquito feeding was determined and average of oocyst determined to find infectivity. In kind it is functional.
Test [18] has as its system Mus musculus. Description: Gametocytocidal activity against Plasmodium yoelii infected mice (2) on intraperitoneal dose of 10 mg/kg at -1h of mosquito feeding was determined and average of oocyst determined to find infectivity. It is filed as functional.
The species entered for test [19] is Mus musculus. The test can be described thus: Activity by comparing the number of oocytes on midgets of mosquitoes fed on drug treated on mice (1) with those of insects fed on untreated animals at 24 hr of mosquito feeding; 10/12. It is filed as functional.
The species entered for test [20] is Mus musculus. The test can be described thus: Activity by comparing the number of oocytes on midgets of mosquitoes fed on drug treated on mice (2) with those of insects fed on untreated animals at -1h of mosquito feeding; 5/15. It is filed as functional.
The subject of test [21] is Mus musculus. Description: Gametocytocidal activity against Plasmodium yoelii infected mice (2) on intraperitoneal dose of 10 mg/kg at 6 hr of mosquito feeding was determined and average of oocyst determined to find infectivity. In kind it is functional.
The species entered for test [22] is Mus musculus. Description: Activity by comparing the number of oocytes on midgets of mosquitoes fed on drug treated on mice (2) with those of insects fed on untreated animals at -1h of mosquito feeding; 12/15. It is filed as functional.
The species named for test [23] is Mus musculus. Description: Activity by comparing the number of oocytes on midgets of mosquitoes fed on drug treated on mice (1) with those of insects fed on untreated animals at -1h of mosquito feeding; 18/20. It is filed as functional.
Test [24] relates to Mus musculus. Description: Tested for in vivo gametocytocidal activity against Plasmodium yoelii infected mice (1), on intraperitoneal dose of 10 mg/kg at +24h of mosquito feeding; Activity = No of Oocytes for infectivity. In kind it is functional.
Test [25] concerns Mus musculus. The test can be described thus: Tested for in vivo gametocytocidal activity against Plasmodium yoelii infected mice (1), on intraperitoneal dose of 10 mg/kg at +6h of mosquito feeding; Activity = No of Oocytes for infectivity. In kind it is functional.
The species named for test [26] is Mus musculus. The test can be described thus: Activity by comparing the number of oocytes on midgets of mosquitoes fed on drug treated on mice (1) with those of insects fed on untreated animals at 6 hr of mosquito feeding; 16/20. In kind it is functional.
Test [27] is filed under the species Mus musculus. The test can be described thus: Activity by comparing the number of oocytes on midgets of mosquitoes fed on drug treated on 1 mice with those of insects fed on untreated animals at -1h of mosquito feeding; 18/20. It is filed as functional.

A value given as a limit tells only on which side of the number the result lay.

Consider `COc1cc(NC(C)CCCN)c2ncccc2c1NC(C)CCCN` (stereo unspecified), for which the IC90 is given as 0.235 ug well-1 with Plasmodium falciparum [1] and 0.055 ug well-1 in the test on Plasmodium falciparum [5]. The Ratio in the test listed under Mus musculus [2] is listed as 0; in the test filed under Mus musculus [3], 0; in the test listed under Mus musculus [6], 8; in the test listed under Mus musculus [7], 0; in the test listed under Mus musculus [11], 16; in the test listed under Mus musculus [13] it was 0. Further, the Ratio in the test listed under Mus musculus [14] is on record as 0; in the test filed under Mus musculus [15] it was 15. Also, the IC50 with Plasmodium falciparum [4] stood at 0.026 ug well-1; with Plasmodium falciparum [10], 0.046 ug well-1. Besides, the Activity in the test with Mus musculus [8] was 315; in the test on Mus musculus [9], 240; with Mus musculus [12], 185.
For `CC(CCCN)Nc1c(O)c(O)c(NC(C)CCCN)c2ncccc12` (stereo unspecified), the IC90 with Plasmodium falciparum [1] is given as over 50 ug well-1; in the test with Plasmodium falciparum [5] it was over 150 ug well-1. For the same molecule, the IC50 in the test on Plasmodium falciparum [4] is recorded as over 150 ug well-1; in the test on Plasmodium falciparum [10], over 50 ug well-1.
Turning to `COc1cc(NC(C)CCCN)c2ncccc2c1-c1c(OC)cc(NC(C)CCCN)c2ncccc12` (stereo unspecified), the IC90 in the test on Plasmodium falciparum [1] amounted to 0.19 ug well-1; in the test on Plasmodium falciparum [5], 0.062 ug well-1. For the same molecule, the IC50 stood at 0.036 ug well-1 in the test with Plasmodium falciparum [4] and 0.031 ug well-1 in the test with Plasmodium falciparum [10]. Moreover, the Ratio in the test listed under Mus musculus [16] amounted to 13; in the test filed under Mus musculus [19], 10; in the test listed under Mus musculus [20] it was 5; in the test listed under Mus musculus [22], 12; in the test listed under Mus musculus [23], 18; in the test listed under Mus musculus [26], 16. The Activity with Mus musculus [17] is recorded as 68.33; in the test with Mus musculus [18], 260.3; in the test with Mus musculus [8] it was over 300; in the test on Mus musculus [21] it was 221.3; with Mus musculus [24], over 300; in the test on Mus musculus [25], over 300.
Consider `CC(CCCN)N(C(C)CCCN)C(C)CCCN` (stereo unspecified), for which the IC90 is listed as 0.245 ug well-1 with Plasmodium falciparum [1] and 0.38 ug well-1 in the test on Plasmodium falciparum [5]. Further, the IC50 is recorded as 0.115 ug well-1 in the test on Plasmodium falciparum [4] and 0.155 ug well-1 in the test on Plasmodium falciparum [10].
On to `COc1cc(NC(C)CCCN)c2ncccc2c1` (stereo unspecified) [PRIMAQUINE], for which the Ratio is 0 in the test filed under Mus musculus [2], 18 in the test filed under Mus musculus [27] and 0 in the test filed under Mus musculus [13]. In the test with Plasmodium falciparum [4], this molecule displayed an IC50 of 0.115 ug well-1. The same molecule gave an IC90 in the test with Plasmodium falciparum [5] of 0.38 ug well-1. In addition, the Activity in the test on Mus musculus [8] is 280.7.
Take `COc1c(O)c(NC(C)CCCN)c2ncccc2c1-c1c(OC)c(O)c(NC(C)CCCN)c2ncccc12` (stereo unspecified): the IC90 with Plasmodium falciparum [1] is 1.75 ug well-1; in the test on Plasmodium falciparum [5], over 150 ug well-1. Also, the figures for the IC50 in the test on Plasmodium falciparum [4] and in the test on Plasmodium falciparum [10] were over 150 ug well-1 and 0.49 ug well-1, respectively.
Molecule `CCN(CC)CCCC(C)Nc1ccnc2cc(Cl)ccc12` (stereo unspecified) [CHLOROQUINE] returned an IC90 in the test on Plasmodium falciparum [1] of 0.015 ug well-1. For the same molecule, the IC50 in the test with Plasmodium falciparum [10] stood at 0.011 ug well-1.
